A word on the IC50: it is the concentration that gives 50% inhibition. A high value points to a need for much substance. By Km is commonly meant the substrate concentration at which the rate is half of its maximum. As usually defined, the AUC(0-t) is exposure summed from dosing to a finite time, without extrapolation to infinity. Higher therefore signals high exposure. For orientation: AUC means concentration integrated over time. Higher therefore signals more exposure. As usually defined, the MRT is the average time that molecules of a dose stay in the body. The half-life is the time in which the quantity being followed falls by half. A lower half-life goes with fast loss.

Marks after values point to notes of the source that are not given here.

These results are taken from article PMC6017115, “Inhibitory Effect of Sauchinone on UDP-Glucuronosyltransferase (UGT) 2B7 Activity” (Molecules : A Journal of Synthetic Chemistry and Natural …, 2018).

Data set [1] concerns the target T1, UGT1A1 (Homo sapiens, UniProt P22309).
T1 construct: The reaction mixture containing 0.25 mg/mL protein of HLM; tissue Corning Life Sciences 452156; host or cells: pooled human liver microsomes, 50 donors
T1 sequence (P22309 26-533): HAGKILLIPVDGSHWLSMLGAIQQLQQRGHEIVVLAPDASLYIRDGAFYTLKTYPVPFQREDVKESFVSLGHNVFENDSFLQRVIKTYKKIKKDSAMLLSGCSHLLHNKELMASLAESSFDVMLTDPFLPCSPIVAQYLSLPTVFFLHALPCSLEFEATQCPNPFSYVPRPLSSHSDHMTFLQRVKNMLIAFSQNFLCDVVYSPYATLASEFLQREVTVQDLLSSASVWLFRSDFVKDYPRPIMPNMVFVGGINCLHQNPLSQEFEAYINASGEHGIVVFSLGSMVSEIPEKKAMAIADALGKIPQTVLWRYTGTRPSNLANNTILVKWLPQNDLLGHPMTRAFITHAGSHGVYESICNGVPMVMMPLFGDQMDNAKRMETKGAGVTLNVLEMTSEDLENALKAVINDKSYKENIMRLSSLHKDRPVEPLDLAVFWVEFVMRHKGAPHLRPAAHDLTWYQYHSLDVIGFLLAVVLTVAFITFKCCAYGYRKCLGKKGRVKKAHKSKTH
The data set can be described thus: Inhibition of UGT1A1 (β-estradiol glucuronidation) in human liver microsomes. The class given is in vitro ADME. The following applies: substrate 10 μM β-estradiol, mean (minimum–maximum). The procedure: (§1) Their IC50 values were compared to that of sauchinone. […] UGT-mediated activities in the presence of sauchinone as an inhibitor were expressed as percentages of corresponding control values (in absence of sauchinone). From percentages of control activity versus inhibitor concentrations, a sigmoid shaped curve was fitted to the data and IC50 as an enzyme inhibition parameter was calculated by fitting the Hill equation to the data using GraphPad Prism 5 (GraphPad Software Inc., San Diego, CA, USA).
(Liver microsomes are a subcellular fraction often used to study metabolism.)

Data set [2] addresses T2, UGT1A4 (Homo sapiens, UniProt P22310).
T2 construct: The reaction mixture containing 0.25 mg/mL protein of HLM; tissue Corning Life Sciences 452156; host or cells: pooled human liver microsomes, 50 donors
T2 sequence (P22310 29-534): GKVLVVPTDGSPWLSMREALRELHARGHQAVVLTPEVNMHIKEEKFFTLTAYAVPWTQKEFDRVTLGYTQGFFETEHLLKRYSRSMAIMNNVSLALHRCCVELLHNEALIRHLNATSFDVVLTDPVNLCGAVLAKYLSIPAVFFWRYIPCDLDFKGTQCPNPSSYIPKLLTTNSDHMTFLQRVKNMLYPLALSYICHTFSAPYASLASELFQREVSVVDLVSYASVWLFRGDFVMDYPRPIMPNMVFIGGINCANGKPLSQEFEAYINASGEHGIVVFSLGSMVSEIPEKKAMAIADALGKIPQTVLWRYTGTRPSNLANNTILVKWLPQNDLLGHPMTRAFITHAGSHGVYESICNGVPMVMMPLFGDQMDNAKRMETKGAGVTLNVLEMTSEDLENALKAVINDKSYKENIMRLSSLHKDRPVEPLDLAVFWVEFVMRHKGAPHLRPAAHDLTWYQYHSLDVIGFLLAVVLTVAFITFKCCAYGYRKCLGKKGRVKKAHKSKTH
As to the kind of experiment: Inhibition of UGT1A4 (trifluoperazine glucuronidation) in human liver microsomes. The class given is in vitro ADME. As for the experimental part:
as §1

In data set [3] the target is T3, UGT1A9 (Homo sapiens, UniProt O60656).
T3 construct: The reaction mixture containing 0.25 mg/mL protein of HLM; tissue Corning Life Sciences 452156; host or cells: pooled human liver microsomes, 50 donors
T3 sequence (O60656 26-530): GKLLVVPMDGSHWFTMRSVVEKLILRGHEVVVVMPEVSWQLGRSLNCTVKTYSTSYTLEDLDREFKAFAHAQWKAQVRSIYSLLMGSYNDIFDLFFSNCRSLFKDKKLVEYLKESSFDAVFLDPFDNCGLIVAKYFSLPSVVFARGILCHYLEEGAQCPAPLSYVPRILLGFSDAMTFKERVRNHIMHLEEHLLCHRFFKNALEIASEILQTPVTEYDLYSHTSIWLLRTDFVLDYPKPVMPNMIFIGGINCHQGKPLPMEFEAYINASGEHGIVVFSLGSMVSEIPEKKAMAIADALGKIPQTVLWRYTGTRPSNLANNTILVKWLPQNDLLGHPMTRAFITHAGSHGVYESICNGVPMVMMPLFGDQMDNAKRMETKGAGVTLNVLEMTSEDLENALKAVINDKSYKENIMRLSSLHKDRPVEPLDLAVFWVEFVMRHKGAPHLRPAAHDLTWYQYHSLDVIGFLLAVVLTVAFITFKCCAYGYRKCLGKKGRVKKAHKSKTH
The data set can be described thus: Inhibition of UGT1A9 (propofol glucuronidation) in human liver microsomes. The class given is in vitro ADME. As to conditions: substrate 100 μM propofol, mean (minimum–maximum). The procedure:
as §1

The target of data set [4] is T4, UGT2B7 (Homo sapiens, UniProt P16662).
T4 sequence (P16662 24-529): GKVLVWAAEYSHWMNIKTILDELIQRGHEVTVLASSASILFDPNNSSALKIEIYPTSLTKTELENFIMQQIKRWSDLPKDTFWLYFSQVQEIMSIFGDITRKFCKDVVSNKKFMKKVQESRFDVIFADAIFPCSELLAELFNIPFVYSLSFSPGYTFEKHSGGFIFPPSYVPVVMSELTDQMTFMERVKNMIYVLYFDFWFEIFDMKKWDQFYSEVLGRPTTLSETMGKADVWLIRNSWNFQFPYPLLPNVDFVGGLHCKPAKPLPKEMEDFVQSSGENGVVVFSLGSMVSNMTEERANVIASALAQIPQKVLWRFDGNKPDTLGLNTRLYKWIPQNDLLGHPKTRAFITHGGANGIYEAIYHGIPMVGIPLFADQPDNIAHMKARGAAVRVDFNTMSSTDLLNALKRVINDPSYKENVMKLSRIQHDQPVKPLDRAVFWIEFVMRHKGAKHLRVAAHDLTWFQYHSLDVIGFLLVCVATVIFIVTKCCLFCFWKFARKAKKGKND
As to the kind of experiment: Enzyme kinetic assay (Ki, Dixon plot) of UGT2B7-mediated zidovudine glucuronidation. As to conditions: human, pH 7.6. As for the experimental part: Inhibitory effects of sauchinone on UGT1A1, 1A3, 1A4, 1A6, 1A9, and 2B7 activities were evaluated using HLMs. […] Spiked volume of UGT cocktail set was 1% (v/v) of total volume of mixture. […] The reaction was initiated by adding 5 mM UDPGA to a final volume of 150 μL and incubated at 37 °C for 15 or 60 min in a thermomixer at 500 rpm. Each reaction was stopped by adding 150 μL of ice-cold methanol containing 50 ng/mL IS. These mixtures were then centrifuged (12,000 rpm for 10 min at 4 °C) and 5 μL of the supernatant was injected into a UPLC-MS/MS system. […] Their IC50 values were compared to that of sauchinone. All inhibitors were dissolved in methanol (except for hecogenin, which was dissolved in dimethyl sulfoxide) and serially diluted to the required concentrations using the same solutions. The final concentration of organic solvent of inhibitors was 1% (v/v). All studies were performed in triplicate and mean values were used in the analysis. The half maximal inhibition constant (IC50) of sauchinone on UGT isoforms was estimated using GraphPad program.
Based on IC50 values, Ki values of sauchinone for UGT1A6 and 2B7 were determined. Concentrations of 0–200 μM of sauchinone were used. Other procedures were similar to those mentioned above in the study of reversible inhibitory effects of sauchinone. Inhibitory characteristics of sauchinone were initially estimated by nonlinear least squares regression analysis and Ki values were determined by Dixon plots.

Data set [5] in a line: Pharmacokinetic study of zidovudine with or without sauchinone in mice. The following applies: for CLNR / AUC(0-t) / AUC / clearance / CL renal / MRT / Vd / half-life / Ae0–24 h / GI24 h: mean ± SD, n = 11; for AUC(0-t) / AUC / clearance / CL renal / MRT / Vd / half-life: mouse, plasma, iv, 15 mg/kg; for AUC(0-t): AUC480 min; for AUC: time zero to infinity; for clearance: CL; for CL renal: CLR; for Vd: Vss; for half-life: t1/2, mice; for Ae0–24 h: zidovudine excreted into urine for 24 h; for GI24 h: zidovudine remaining or excreted in GI at 24 h.

Substrate in data set [6]: NCCc1c[nH]c2ccc(O)cc12
As to the kind of experiment: purified protein, by the assay type. As to conditions: other: without sauchinone; pH 7.6; 37.0 °C.

Setting [7] is: mice, zidovudine 15 mg/kg iv with oral 100 mg/kg sauchinone.
The mark [8] stands for this setting: mice, zidovudine 15 mg/kg iv with vehicle.
The mark [9] stands for this setting: mice, zidovudine 15 mg/kg iv, oral 100 mg/kg sauchinone.

`O=c1cc(-c2ccccc2)oc2cc(O)cc(O)c12` [Chrysin] gave an IC50 in data set [1] of 28.3 µM.

`C[C@@H]1CC[C@@]2(OC1)O[C@H]1C[C@H]3[C@@H]4CC[C@H]5C[C@@H](O)CC[C@]5(C)[C@H]4CC(=O)[C@]3(C)[C@H]1[C@@H]2C` [Hecogenin] returned an IC50 in data set [2] of 3.99 µM.

As to `O=C(O)c1cccnc1Nc1cccc(C(F)(F)F)c1` [Niflumic acid], in data set [3], it took 0.755 µM to reach half-maximal inhibition (IC50).

Regarding `Cc1cn([C@H]2C[C@H](N=[N+]=[N-])[C@@H](CO)O2)c(=O)[nH]c1=O` [zidovudine], the Km in data set [4] turned out to be 85 µM. In addition, in data set [5] (setting [7]), the CLNR is recorded as 24.5 ± 9.31 ^a mL/min/kg, the AUC(0-t) is 5730 ng·h/mL, the AUC is 5820 ng·h/mL and the clearance came to 48.6 ± 16.1 mL/min/kg. In data set [5] (setting [7]), the CL renal was determined as 24 ± 8.02 mL/min/kg, the MRT is 0.725 h, the Vd worked out at 2.1 ± 1.23 L/kg and the “Ae0–24 h” value was 50.2 ± 8.41 % of dose. Besides, the GI24 h in data set [5] (setting [7]) was 0.321 ± 0.646 % of dose. Also, in data set [5] (setting [8]), the CLNR is listed as 34.8 ± 10.5 mL/min/kg, the AUC(0-t) is 3780 ng·h/mL, the AUC is 3800 ng·h/mL and the clearance worked out at 68.7 ± 18.7 mL/min/kg. In data set [5] (setting [8]), the CL renal is 34 ± 11.2 mL/min/kg, the MRT was 0.93 h, the Vd was 3.31 ± 1.67 L/kg and the “Ae0–24 h” value is listed as 50.3 ± 8.01 % of dose. For the same molecule, the GI24 h in data set [5] (setting [8]) was 0.672 ± 0.999 % of dose. Further, in data set [5] (setting [9]), the “decrease of CL of zidovudine with sauchinone compared to without” value stood at 29.3%, the “decrease of CLNR of zidovudine with sauchinone compared to without” value is reported as 29.6% and the “increase of AUC480 min of zidovudine with sauchinone compared to without” value is on record as 53.1%. The same molecule yielded a half-life in data set [5] (zidovudine 15 mg/kg iv with oral 100 mg/kg sauchinone) of 2.97 ± 1.55 h. For the same molecule, the half-life in data set [5] (zidovudine 15 mg/kg iv with vehicle) amounted to 3.45 ± 2.22 h.

B1: UGT1A6 (Homo sapiens) (protein)
chain: DKLLVVPQDGSHWLSMKDIVEVLSDRGHEIVVVVPEVNLLLKESKYYTRKIYPVPYDQEELKNRYQSFGNNHFAERSFLTAPQTEYRNNMIVIGLYFINCQSLLQDRDTLNFFKESKFDALFTDPALPCGVILAEYLGLPSVYLFRGFPCSLEHTFSRSPDPVSYIPRCYTKFSDHMTFSQRVANFLVNLLEPYLFYCLFSKYEELASAVLKRDVDIITLYQKVSVWLLRYDFVLEYPRPVMPNMVFIGGINCKKRKDLSQEFEAYINASGEHGIVVFSLGSMVSEIPEKKAMAIADALGKIPQTVLWRYTGTRPSNLANNTILVKWLPQNDLLGHPMTRAFITHAGSHGVYESICNGVPMVMMPLFGDQMDNAKRMETKGAGVTLNVLEMTSEDLENALKAVINDKSYKENIMRLSSLHKDRPVEPLDLAVFWVEFVMRHKGAPHLRPAAHDLTWYQYHSLDVIGFLLAVVLTVAFITFKCCAYGYRKCLGKKGRVKKAHKSKTH
Take B1: in data set [6], the Km is 126 µM and the Vmax turned out to be 174 μM/min/mg protein.
